Here are results for five compounds from PubChem BioAssay (NCI).

Each structure is given as a SMILES string. “And” between values parts separate entries of the source, which are not always exact repeats. Equal values may be shown once.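 Briefly, cells in 96-well plates were exposed to five compound concentrations for 48 h, and endpoints were estimated by linear interpolation. Definition used: TGI = concentration required for complete inhibition of growth.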 Where only a bound is given, the exact number is not on record here.

One experiment has as its system SNB-19 CNS. The experiment in a line: growth of human tumour cells (NCI), 48 h.
The compound `O=C(O)CC/C(=N\Nc1nsc2ccccc12)c1ccccc1` showed a TGI above 100 µM.

Another experiment deals with DLD-1 colon. Nature of the experiment: growth of human tumour cells (NCI), 48 h.
The compound `CCN(CC)c1c(C(=O)/C=C/c2ccccc2)c(-c2ccccc2)nn(C)c1=O` yielded a TGI above 100 µM.
For `Nc1nc(=S)c2ncn(C3CC(O)C(CO)O3)c2[nH]1` (stereo not drawn), the TGI was 340 µM and 1740 µM.
Consider `NC(N)=NS(=O)(=O)c1ccc(NCc2c3ccccc3[n+]([O-])c3ccccc23)cc1`, for which the TGI is above 100 µM.

The subject of another experiment is OVCAR-4 ovarian. Nature of the experiment: growth of human tumour cells (NCI), 48 h.
The compound `CCN(CC)c1c(C(=O)/C=C/c2ccccc2)c(-c2ccccc2)nn(C)c1=O` registered a TGI above 100 µM.
`NC(N)=NS(=O)(=O)c1ccc(NCc2c3ccccc3[n+]([O-])c3ccccc23)cc1` had a TGI of 85.3 µM.
The compound `O=C(O)CC/C(=N\Nc1nsc2ccccc12)c1ccccc1` gave a TGI above 100 µM.

In a further experiment the test system is MALME-3M melanoma. The experiment in a line: growth of human tumour cells (NCI), 48 h.
For `CCN(CC)c1c(C(=O)/C=C/c2ccccc2)c(-c2ccccc2)nn(C)c1=O`, the TGI was above 100 µM.
The same measure, in the same setting: with `NC(N)=NS(=O)(=O)c1ccc(NCc2c3ccccc3[n+]([O-])c3ccccc23)cc1` the figure was 51.5 µM.
In turn, `COC(=O)C(CCC#N)(CCC#N)C(=O)OC` displayed a TGI above 100 µM.

The next experiment concerns EKVX NSCLC. The experiment in a line: growth of human tumour cells (NCI), 48 h.
In the case of `CCN(CC)c1c(C(=O)/C=C/c2ccccc2)c(-c2ccccc2)nn(C)c1=O`, the TGI is above 100 µM.
The compound `NC(N)=NS(=O)(=O)c1ccc(NCc2c3ccccc3[n+]([O-])c3ccccc23)cc1` registered a TGI above 100 µM.
Take `COC(=O)C(CCC#N)(CCC#N)C(=O)OC`: the TGI is above 100 µM.
In turn, `O=C(O)CC/C(=N\Nc1nsc2ccccc12)c1ccccc1` displayed a TGI above 100 µM.

In another experiment the test system is OVCAR-8 ovarian. The experiment in a line: growth of human tumour cells (NCI), 48 h.
With `CCN(CC)c1c(C(=O)/C=C/c2ccccc2)c(-c2ccccc2)nn(C)c1=O`, the TGI was above 100 µM.
In turn, `NC(N)=NS(=O)(=O)c1ccc(NCc2c3ccccc3[n+]([O-])c3ccccc23)cc1` came in with a TGI above 100 µM.
On the same count and under the same terms, as for `COC(=O)C(CCC#N)(CCC#N)C(=O)OC`, the figure is above 100 µM.
In turn, `O=C(O)CC/C(=N\Nc1nsc2ccccc12)c1ccccc1` showed a TGI above 100 µM.

The next experiment concerns 786-0 renal. The experiment in a line: growth of human tumour cells (NCI), 48 h.
Turning to `CCN(CC)c1c(C(=O)/C=C/c2ccccc2)c(-c2ccccc2)nn(C)c1=O`, the TGI was above 100 µM.
Compound `Nc1nc(=S)c2ncn(C3CC(O)C(CO)O3)c2[nH]1` (stereo not drawn) came in with a TGI above 2350 µM.
`NC(N)=NS(=O)(=O)c1ccc(NCc2c3ccccc3[n+]([O-])c3ccccc23)cc1` displayed a TGI above 100 µM.
For `COC(=O)C(CCC#N)(CCC#N)C(=O)OC`, the TGI was above 100 µM.

Another experiment has as its system T-47D breast. Nature of the experiment: growth of human tumour cells (NCI), 48 h.
Consider `Nc1nc(=S)c2ncn(C3CC(O)C(CO)O3)c2[nH]1` (stereo not drawn), for which the TGI is 438 µM and > 3110 µM.

Another experiment deals with HOP-62 NSCLC. The experiment in a line: growth of human tumour cells (NCI), 48 h.
Consider `CCN(CC)c1c(C(=O)/C=C/c2ccccc2)c(-c2ccccc2)nn(C)c1=O`, for which the TGI is above 100 µM.
As for `NC(N)=NS(=O)(=O)c1ccc(NCc2c3ccccc3[n+]([O-])c3ccccc23)cc1`, the TGI was above 100 µM.
`COC(=O)C(CCC#N)(CCC#N)C(=O)OC`: the TGI was above 100 µM.
`O=C(O)CC/C(=N\Nc1nsc2ccccc12)c1ccccc1` showed a TGI above 100 µM.

The test system of the next experiment is KM20L2 colon. Nature of the experiment: growth of human tumour cells (NCI), 48 h.
As for `CCN(CC)c1c(C(=O)/C=C/c2ccccc2)c(-c2ccccc2)nn(C)c1=O`, the TGI is above 100 µM.
Regarding `Nc1nc(=S)c2ncn(C3CC(O)C(CO)O3)c2[nH]1` (stereo not drawn), the TGI was 421 µM and 2940 µM.
The compound `NC(N)=NS(=O)(=O)c1ccc(NCc2c3ccccc3[n+]([O-])c3ccccc23)cc1` came in with a TGI above 100 µM.
Regarding `COC(=O)C(CCC#N)(CCC#N)C(=O)OC`, the TGI was above 100 µM.
The compound `O=C(O)CC/C(=N\Nc1nsc2ccccc12)c1ccccc1` had a TGI above 100 µM.

For another experiment, the system named is K-562 leukemia. The experiment in a line: growth of human tumour cells (NCI), 48 h.
Regarding `CCN(CC)c1c(C(=O)/C=C/c2ccccc2)c(-c2ccccc2)nn(C)c1=O`, the TGI is above 100 µM.
Turning to `Nc1nc(=S)c2ncn(C3CC(O)C(CO)O3)c2[nH]1` (stereo not drawn), the TGI is 333 µM and 2590 µM.
On to `NC(N)=NS(=O)(=O)c1ccc(NCc2c3ccccc3[n+]([O-])c3ccccc23)cc1`, for which the TGI was above 100 µM.
In the case of `COC(=O)C(CCC#N)(CCC#N)C(=O)OC`, the TGI was above 100 µM.
For the compound `O=C(O)CC/C(=N\Nc1nsc2ccccc12)c1ccccc1`, the TGI is above 100 µM.

For another experiment, the system named is LXFL 529 NSCLC. The experiment in a line: growth of human tumour cells (NCI), 48 h.
`CCN(CC)c1c(C(=O)/C=C/c2ccccc2)c(-c2ccccc2)nn(C)c1=O` gave a TGI above 100 µM.
`NC(N)=NS(=O)(=O)c1ccc(NCc2c3ccccc3[n+]([O-])c3ccccc23)cc1`: the TGI came out at 80.5 µM.
In the case of `COC(=O)C(CCC#N)(CCC#N)C(=O)OC`, the TGI is above 100 µM.
Same read-out and setting: as for `O=C(O)CC/C(=N\Nc1nsc2ccccc12)c1ccccc1`, the figure is above 100 µM.

The test system of another experiment is SF-268 CNS. The experiment in a line: growth of human tumour cells (NCI), 48 h.
Take `CCN(CC)c1c(C(=O)/C=C/c2ccccc2)c(-c2ccccc2)nn(C)c1=O`: the TGI was above 100 µM.
Turning to `Nc1nc(=S)c2ncn(C3CC(O)C(CO)O3)c2[nH]1` (stereo not drawn), the TGI was 555 µM and > 5000 µM.
Regarding `NC(N)=NS(=O)(=O)c1ccc(NCc2c3ccccc3[n+]([O-])c3ccccc23)cc1`, the TGI was 86.6 µM.
The same measure, in the same setting: with `COC(=O)C(CCC#N)(CCC#N)C(=O)OC` the figure was above 100 µM.
As to `O=C(O)CC/C(=N\Nc1nsc2ccccc12)c1ccccc1`, the TGI is above 100 µM.

The test system of another experiment is NCI-H226 lung. Nature of the experiment: growth of human tumour cells (NCI), 48 h.
`CCN(CC)c1c(C(=O)/C=C/c2ccccc2)c(-c2ccccc2)nn(C)c1=O` came in with a TGI above 100 µM.
Turning to `Nc1nc(=S)c2ncn(C3CC(O)C(CO)O3)c2[nH]1` (stereo not drawn), the TGI is 639 µM and > 5000 µM.
The compound `NC(N)=NS(=O)(=O)c1ccc(NCc2c3ccccc3[n+]([O-])c3ccccc23)cc1` displayed a TGI of 72.8 µM.
Take `COC(=O)C(CCC#N)(CCC#N)C(=O)OC`: the TGI is above 100 µM.

The next experiment deals with MOLT-4 leukemia. The experiment in a line: growth of human tumour cells (NCI), 48 h.
On to `NC(N)=NS(=O)(=O)c1ccc(NCc2c3ccccc3[n+]([O-])c3ccccc23)cc1`, for which the TGI is 43.8 µM.
Compound `COC(=O)C(CCC#N)(CCC#N)C(=O)OC` showed a TGI above 100 µM.
In the case of `O=C(O)CC/C(=N\Nc1nsc2ccccc12)c1ccccc1`, the TGI was 91.6 µM.
